In patent US9139615B2, “High-affinity, dimeric inhibitors of PSD-95 as efficient neuroprotectants against ischemic brain damage and for treatment of pain” (University of Copenhagen, priority 2011, dated 2015):
Where no end group is shown, it is not given here.

Columns and labels:
PDZ1-2 of PSD-95 = target: T1, PDZ1-2 of PSD-95 (Homo sapiens, UniProt P78352); test: Fluorescence polarization (FP) assay, affinity for PDZ1-2 of PSD-95; assay type: binding; settings: Ki ± SEM, affinity towards PDZ1-2 of PSD-95, heterologous competition, probe AB143 0.5 nM, PDZ1-2 […], TBS pH 7.4; IC50 converted to Ki
T1 construct: made in house; host or cells: E. coli BL21-DE3 pLysS
Source text: VI.i. Fluorescence Polarization (FP) Assay: as described below, Example 1 provides a convenient and reliable way to monitor and evaluate the inhibitor properties of a PSD-95 inhibitor of the invention. The FP assay allows a wide range of peptide analogues to be tested and compared with respect to their interaction with PDZ domains, and their specificity with respect to the tandem PDZ1-2 of PSD-95. PDZ1-2 is expressed using standard recombinant DNA technology known to those skilled in the art.
More specifically, the assay is based on a heterologous competition binding assay, where the affinity measured as IC50 of a given (non-fluorescent) peptide analogue for a PDZ domain is measured in the presence of a fixed concentration of a fluorescent labeled dimeric ligand (AB143; FIG. 4). Determined IC50 values are converted to Ki values (Nikolovska-Coleska et al, Anal. Biochem. 2004, 332, p. 261-273). The 5-FAM fluorophore may be attached to the dimeric ligand by coupling with HATU or HBTU.
The cDNA coding for PSD-95 PDZ1-2 tandem (corresponding to residues 61-249 in the human full-length PSD95α without exon 4b) were amplified by inverted PCR and cloned in a modified His-tagged pRSET vector (Invitrogen, Carlsbad, Calif., USA). The encoded PDZ1-2 peptide further comprised the sequence, […] (SEQ ID NO: 14), which was used as a tag for purification (His-tag), and the DNA coding sequences and encoded proteins are designated as follows: HIS-PDZ1-2 DNA [SEQ ID NO: 1] encoding HIS-PDZ1-2 protein [SEQ ID NO: 2]. Competent E. coli bacteria (BL21-DE3, pLysS) were transformed with PDZ1-2 expressing construct and grown overnight on agar plates containing ampicillin (100 μg/mL) and chloramphenicol (35 μg/mL) at 37° C. Colonies were picked and used to inoculate bacterial cultures (LB medium with 50 μg/mL ampicillin). These were shaken while being incubated at 37° C. until A600 of the culture reached 0.45, at which point 1 mM isopropyl β-D-1-thiogalactopyranoside was added. Induced cultures were incubated over night at 30° C. (PDZ1-2). Cells were harvested by spinning at 10,000 g for 10 min at 4° C. and re-suspended in lysis buffer (50 mM Tris/HCL pH 7.5, 1 mM PMSF, 25 μg/ml DNAse, 40 mM Mg2SO4). The cells were destroyed using a cell disruptor apparatus at 26 KPsi. The cell lysate was spun down at 35,000 g for 1 hour and the supernatant filtered with a 0.45 μm and a 0.22 μm filter. Purification of expressed PDZ1-2 peptide was performed with first a nickel (II)-charged column (HisTrap™ HP, GE Healthcare, UK) equilibrated with Tris-buffer (Tris/HCl buffer 50 mM, pH 7.5) followed by gel-filtration. For gel-filtration the PDZ1-2 sample was loaded on a Superdex™ 75 HR 10/30 column (GE Healthcare, UK) equilibrated with Tris buffer (20 mM Tris/HCL, pH 7.5) with a constant flow rate at 0.5 mL/min. The relevant fractions were analyzed on a SDS-PAGE gel stained by a standard silver staining protocol. The final purification was analyzed by electrospray ionization liquid chromatography-mass spectrometry (ESI-LC/MS) to get the exact molecular weight and thereby verify the identity of the PDZ1-2 domain. Molar extinction coefficients were found by amino acids analysis (Alphalyse, Odense, Denmark) and thereafter used for measuring protein concentrations. […]
An in vitro affinity measurement assay was developed based on the fluorescence polarization principle in order to provide affinity constants (Ki values) between synthesized ligands (e.g. dimeric inhibitors) and PDZ1-2 of PSD-95. […]

[1] = Physiological status of pMCAO mice (blood values, body weight, temperature, survival); assay type: in vivo; settings: mouse, in vivo
Protocol: The physiological status of the mice was carefully monitored prior to and during pMCAO surgery in order to exclude the observed effects of treatment with dimeric PSD-95 inhibitors being due to secondary conditions (e.g. disease-related) resulting from the experimental procedure.
9.10 Body weight monitoring: The body weight of each mouse was registered during pre-training, before surgery, and at 24 and 48 hours after surgery and no differences were seen between the treatment groups (FIG. 13).
9.11 Temperature monitoring: The rectal temperature of the mouse was continuously measured using a thermocoupled probe connected to a Model Bat 12 unit (Physitemp). The temperature was measured prior to and 30 min after pMCAO in addition to 30 min and 2.5 hours after i.v. injection, i.e. 1 and 3 hours after pMCAO.
9.12 Blood gas analysis: One samples of venous blood was taken for blood gas analysis of PO2/PCO2 electrolytes, glucose, lactate, and hematocrit, 30 min after compound administration (1 hour after pMCAO). A capillary heparin coated tube was inserted along the inner corner of eye and turned until it penetrated the conjunctiva. A sample of blood (150 μl) was collected and stored on ice until gas analysis using the GEM Premier 300 blood gas instrument (Instrumentation Laboratory) Quality controls (QC ContrlIL9) were purchased from IL Sensor Systems. Also, no differences were detected in blood gas parameters (PO2/PCO2, pH, electrolytes, glu/lac), which were similar between the groups and within normal range, when compared to unmanipulated control mice (Table 4).

[2] = Human blood plasma stability assay; assay type: in vitro ADME; settings: human, plasma; 0.25 mM, 37° C., in vitro; read-out: half-life (T1/2) in human blood plasma
Protocol: Ligands (dimeric PSD-95 inhibitors) for the PDZ domain of PSD-95 were dissolved in human blood plasma (270 μL; 3H Biomedical, Sweden, cat no 1300-1-P50) to a concentration of 0.25 mM (30 μL, of 2.5 mM) and incubated at 37° C. Aliquots (30 μL) were removed at various time intervals (e.g. 0, 5, 10, 20, 40, 80, 160, 320, 960, 1280, 2550, 4560 and 7240 min) and quenched with 60 μL, trichloroacetic acid (aq., 5%). The aliquots were vortexed, and incubated 15 min, at 4° C. prior to centrifugation at 18,000 g for 2 min. The supernatants were analyzed by analytical RP-HPLC (UV218) to quantify compound relative to time zero, and also evaluated qualitatively by ESI-LC/MS in order to identify the compound (m/z) in the sample. Procaine (positive control) and procainamide (negative control) were investigated at 50 μM to validate the procedure. Ligand recoveries following the precipitation procedure were between 85-95%.

T1 sequence (P78352 with tags, fused parts or gaps): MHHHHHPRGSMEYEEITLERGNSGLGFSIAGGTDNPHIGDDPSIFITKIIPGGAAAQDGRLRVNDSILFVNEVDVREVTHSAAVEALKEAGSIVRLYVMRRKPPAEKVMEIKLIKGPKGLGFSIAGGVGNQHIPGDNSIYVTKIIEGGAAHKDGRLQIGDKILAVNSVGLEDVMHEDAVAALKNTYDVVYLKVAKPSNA

In the case of “YGRKKRRQRRRKLSSIESDV [Tat-NR2B9c, reference compound]”, the Ki (PDZ1-2 of PSD-95) is reported as 4.6 ± 0.3 µM, the Hct [1] is reported as 40.8 ± 0.6% and the “[Ca2+]” value [1] is reported as 1.32 ± 0.01 mmol/L. The “[K+]” value [1] was 5.1 ± 0.13 mmol/L, the “[Lactate]” value [1] was 0.87 ± 0.07 mmol/L and the “[Na+]” value [1] was 147 ± 0.3 mmol/L. It also gave a pCO2 [1] of 106 ± 2.4 mmHg, a pO2 [1] of 55.2 ± 2.6 mmHg and a half-life at 0.25 mM [2] of 1100 ± 300 min.
